The values that follow come from patent EP4458412A1, “NOVEL PHOSPHOANTIGEN PRODRUG COMPOUND AND USE THEREOF” (University College Cardiff Consultants, Ltd., priority 2023, dated 2024).

One series relates to human Vγ9/Vδ2^+ T cells. In words: Activation of human Vγ9/Vδ2+ T cells in PBMCs (CD69/CD25 upregulation, flow cytometry). The following applies: for EC50: PBMCs incubated overnight, CD69+ CD25+ Vγ9/Vδ2 T cells, 10pM to 100µM; for activation of Vγ9/Vδ2 T cells at the highest concentration studied: 100 µM compared with 10 µM; for activation of Vγ9/Vδ2 T cells (rank in words): across the two series 9a-d and 14a-d, in vitro. In kind it is cell-based. Here is the method:
General: Healthy donor peripheral blood mononuclear cells (PBMCs) were harvested as described in Morita et al. 2007. In particular, blood was obtained in the presence of a mixture of heparin and ethylene diamino tetra acetic acid (EDTA) as anticoagulants (2 U/ml heparin, 1.5 mM EDTA) from consented healthy donors (approved by the NRES Committee West Midlands-Solihull Ethical Board; REC reference 14/WM/1254). Blood was then layered on a density gradient medium, lymphoprep (Stem Cell Technologies) and Peripheral blood mononuclear cells (PBMCs) were purified by gradient centrifugation. The cells were washed 2 times with Phosphate Buffered Saline (PBS), then resuspended in RPMI-1640 media supplemented with 2 mM L-glutamine, 25 mM HEPES, 1% sodium pyruvate, 50 µg/ml penicillin/streptomycin (Invitrogen) and 10% foetal calf serum.
(§1) To assess the activation of Vy9/V62 T cells, PBMCs were seeded into U-bottom tissue culture-treated 96-well plates at a cell density of 500,000 cells per well. […] The cells were incubated at 37°C/5%CO2 overnight, and stained by flow cytometry for the following markers: viability (Zombie Aqua 1:400), CD3 (BV421 1:100), CD8 (BV650 1:200), Vγ9 (PEcy5 1:400), V62 (APC 1:200), CD69 (PE 1:25), CD25 (FITC 1:100). The samples were acquired via LSRFortessa X20 (BD Biosciences), and the data obtained were analysed using FlowJo v10 and GraphPad Prism v9 software.
Peripheral blood γδ T-cells lack appreciable levels of surface CD69 or CD25 under steady state conditions, but T-cell receptor (TCR) stimulation upregulates both T-cell activation markers within 72 hours. PAg responsive Vy9/V62 T-cells were then distinguished by TCR Yγ9 and V62 expression and assessed for the upregulation CD69 and CD25. […]

Another series relates to Vγ9/Vδ2 T cells. The following applies: previously reported potencies (Hsiao 2014; Reichenberg 2003); cited from earlier work.
Series [1] in a line: Human serum stability monitored by 31P NMR. It counts as in vitro ADME. The following applies: 37 °C, 7.5 h. How it is done: This experiment was carried out as previously reported in Mehellou et al. 2020 and Slusarczyk, M.; Ferrari, V.; Serpi, M.; Gönczy, B.; Balzarini, J.; McGuigan, C; Symmetrical Diamidates as a Class of Phosphate Prodrugs to Deliver the 5'-Monophosphate Forms of Anticancer Nucleoside Analogues; ChemMedChem 2018, 13, 2305-2316 (hereinafter "McGuigan et al. 2018"), as well as Slusarczyk, M.; Lopez, M. H.; Balzarini, J.; Mason, M.; Jiang, W. G.; Blagden, S.; Thompson, E.; Ghazaly, E.; McGuigan, C. Application of ProTide technology to gemcitabine: a successful approach to overcome the key cancer resistance mechanisms leads to a new agent (NUC-1031) in clinical development. J. Med. Chem. 2014, 57, 1531-1542 (hereinafter "McGuigan et al. 2014").
Briefly, 5.0 mg of the phosphonodiamidate ProPAgen 9b was dissolved in a mixture of 0.05 mL of DMSO and 0.15 mL D2O. After recording the first ^31P NMR data, 0.3 mL human serum (Merck Life Sciences) was added and monitored by NMR. The experiment was run on NMR ^31P mode and scanned every half an hour for 7.5 h. The incubation temperature was 37°C. Recorded data were processed and analysed with Bruker Topspin 2.1 software.
ProPAgen 9b was incubated with human serum at 37 °C for 7.5 h and monitored by ^31P NMR spectroscopy. […]

In another series the target is T1, carboxypeptidase Y (Saccharomyces cerevisiae, UniProt P00729).
T1 sequence (P00729 112-532): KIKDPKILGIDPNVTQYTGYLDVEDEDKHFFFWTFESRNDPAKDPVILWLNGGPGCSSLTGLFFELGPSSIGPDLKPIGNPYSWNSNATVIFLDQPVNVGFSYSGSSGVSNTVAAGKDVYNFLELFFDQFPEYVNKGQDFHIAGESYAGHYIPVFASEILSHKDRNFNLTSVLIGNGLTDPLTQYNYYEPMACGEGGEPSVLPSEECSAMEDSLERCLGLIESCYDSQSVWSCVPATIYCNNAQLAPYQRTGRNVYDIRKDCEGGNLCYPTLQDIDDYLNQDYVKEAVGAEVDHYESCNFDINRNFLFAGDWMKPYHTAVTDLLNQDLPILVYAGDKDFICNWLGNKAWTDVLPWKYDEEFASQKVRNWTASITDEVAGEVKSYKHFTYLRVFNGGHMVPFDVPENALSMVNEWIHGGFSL
Nature of the series: Carboxypeptidase Y assay (in vitro metabolism, 31P NMR). The following applies: recombinant carboxypeptidase Y, 37 °C. In kind it is in vitro ADME. Here is the method: The in vitro metabolism of the phosphonodiamidate ProPAgens according to the present invention was investigated in a carboxypeptidase Y assay.
The carboxypeptidase Y assay was carried out as previously reported by Mehellou et al. 2020, McGuigan et al. 2018 and McGuigan et al. 2014. 5.0 mg of the phosphonodiamidate ProPAgen 9b was dissolved in 0.2 mL of acetone, and 0.4 mL of Trizma buffer (pH 7.4) was added followed by 0.5 mg carboxypeptidase Y in 0.2 ml Trizma buffer (pH 7.4). The phosphonodiamidate ProPAgen 9b was incubated with recombinant carboxypeptidase Y at 37 °C and monitored the reaction by ^31P-NMR for 12 h. Recorded data were processed and analysed with Bruker Topspin 2.1 software.

For another series, the system named is CD8^+ T cells. Nature of the series: Activation of CD8+ T cells in PBMC overnight cultures (CD69/CD25, flow cytometry). Conditions: for concentration without CD8+ T cell activation relative to Vγ9/Vδ2 T-cell activation EC50: 1 µM versus EC50; for activation of CD8+ T cells: up to a concentration of 1 µM, overnight PBMC culture. It counts as cell-based, human. How it is done: as §1
Like peripheral blood γδ T-cells, peripheral blood CD8^+ T-cells lack appreciable levels of surface CD69 or CD25 under steady state conditions, but upon T-cell receptor (TCR) stimulation upregulate both T-cell activation markers within 72 hours. PAg responsive CD8 T-cells were then distinguished by TCR CD8 expression and assessed for the upregulation CD69 and CD25.
(In general: Flow cytometry measures light scatter and fluorescence of single cells or particles in a stream.)

The test system of series [2] is T24 urinary bladder carcinoma cells. Nature of the series: Europium-based (DELFIA) cytotoxicity assay: lysis of drug-sensitized T24 cells by expanded Vγ9/Vδ2 T cells. Conditions: 10 nM ProPAgen, 2 h pretreatment, effector:target 80:1, compared with 10 µM Zoledronate. In kind it is cell-based, Human. Here is the method:
Human T24 urinary bladder carcinoma cell lines were cultured in PBS for 2 h at 37°C/5% CO2 without ProPAgens (i.e. untreated), containing 10 µM zoledronate (i.e. the clinically used small molecule drug) or the indicated HMBP phosphonodiamidate ProPAgens of the present invention, i.e. ProPAgen 9d at a concentration of 10nM, and ProPAgen 14d at a concentration of 10nM. A positive control for cell death (target cells incubated with 10% v/v DELFIA lysis buffer) and media-only treated control (no drug) were also included. The cells were then washed 3 times at 600 x g for 5 min in PBS to remove any excess drug and incubated in PBS with BATDA labelling agent (used at 1µl per ml) for 20 min at 37°C as before.
In the meantime, ex vivo expanded Vy9/V62 T cells, i.e. Vy9/V62 T cells that have been expanded with 5µM Zoledronate and 100U/ml IL2 over a period of 14 days, were thawed, counted and resuspended to a cell concentration of 4 x 10^6 cells/ml. […]
The level of killing of T24 cells was then measured via time-resolved fluorescence using a PHERAstar microplate reader (BMG Labtech). Specific lysis (% killing of T24 cells) was calculated as follows: [(experimental release - spontaneous release)/(maximal release - spontaneous release)] x 100. The data were processed and analyzed using Microsoft Excel and GraphPad Prism v9 software. […]

With `C/C(=C\COP(=O)(O)OP(=O)(O)O)CO` [HMBPP, (E)-4-hydroxy-3-methylbut-2-enyl pyrophosphate, reference compound], the concentration giving a half-maximal response (EC50) (in general, the concentration giving half of the maximal effect) was 181 nM in the series on human Vγ9/Vδ2^+ T cells and 0.06 to 0.5 nM in the series on Vγ9/Vδ2 T cells.

Molecule `COC(=O)[C@H](C)NP(=O)(N[C@@H](C)C(=O)OC)C(F)(F)C/C=C(\C)CO` [ProPAgen 9a, Dimethyl 2,2'-((((E)-1,1-difluoro-5-hydroxy-4-methylpent-3-en-1-yl)phosphor-yl)bis(azanediyl))(2S,2'S)-dipropionate] had an EC50 in the series with human Vγ9/Vδ2^+ T cells of 191 nM.

As for `C/C(=C\CC(F)(F)P(=O)(N[C@@H](C)C(=O)OC(C)C)N[C@@H](C)C(=O)OC(C)C)CO` [ProPAgen 9b, Diisopropyl 2,2'-((((E)-1,1-difluoro-5-hydroxy-4-methylpent-3-en-1-yl)phosphor-yl)bis-(azanediyl))(2S,2'S)-dipropionate], in the series on human Vγ9/Vδ2^+ T cells (Homo sapiens, T-cell), a half-maximal response (EC50) required 167 nM. Moreover, the half-life (in general, how long it takes for the measured level to halve) in series [1] is more than 450 min. The “time to appearance of three new 31P NMR peaks (metabolite 17)” value on carboxypeptidase Y (Trizma buffer pH 7.4) is listed as not above 0.5 h. For the same molecule, at carboxypeptidase Y (within 6.5 h), the “31P NMR peaks of parent prodrug after incubation” value is recorded as “those of 9b were the minor”.

In the series on human Vγ9/Vδ2^+ T cells, `C/C(=C\CC(F)(F)P(=O)(N[C@@H](C)C(=O)OC(C)(C)C)N[C@@H](C)C(=O)OC(C)(C)C)CO` [ProPAgen 9c, Di-tert-butyl 2,2'-((((E)-1,1-difluoro-5-hydroxy-4-methylpent-3-en-1-yl)phosphoryl)bis(azanediyl))(2S,2'S)-dipropionate] gave an EC50 of 1500 nM.

For the molecule `C/C(=C\CC(F)(F)P(=O)(N[C@@H](C)C(=O)OCc1ccccc1)N[C@@H](C)C(=O)OCc1ccccc1)CO` [ProPAgen 9d, Dibenzyl 2,2'-((((E)-1,1-difluoro-5-hydroxy-4-methylpent-3-en-1-yl)phosphoryl)-bis(azanediyl))(2S,2'S)-dipropionate], in the series on human Vγ9/Vδ2^+ T cells, the “activation of Vγ9/Vδ2 T cells at the highest concentration studied” value was “less than that achieved with 10 µM” and the “activation of Vγ9/Vδ2 T cells (rank in words)” value is “most potent activation”. Also, in the series with CD8^+ T cells, the “concentration without CD8+ T cell activation relative to Vγ9/Vδ2 T-cell activation EC50” value is recorded as “approx. 100,000 times” and the “activation of CD8+ T cells” value is listed as “did not exhibit activation”. In series [2], the “sensitizing effects (specific lysis of T24 cells by Vγ9/Vδ2 T-cells)” value is “much more potent”.

On to `C/C(=C\CCP(=O)(N[C@@H](C)C(=O)OC(C)C)N[C@@H](C)C(=O)OC(C)C)CO` [ProPAgen 14b, Diisopropyl 2,2'-((((E)-5-hydroxy-4-methylpent-3-en-1-yl)phosphoryl)bis(az-anediyl))-(2S,2'S)-dipropionate], for which the EC50 in the series with human Vγ9/Vδ2^+ T cells was 87 nM.

In turn, `C/C(=C\CCP(=O)(N[C@@H](C)C(=O)OC(C)(C)C)N[C@@H](C)C(=O)OC(C)(C)C)CO` [ProPAgen 14c, Di-tert-butyl 2,2'-((((E)-5-hydroxy-4-methylpent-3-en-1-yl)phosphoryl)bis(az-ane-diyl))-(2S,2'S)-dipropionate] yielded an EC50 in the series with human Vγ9/Vδ2^+ T cells of 6100 nM.

For the molecule `C/C(=C\CCP(=O)(N[C@@H](C)C(=O)OCc1ccccc1)N[C@@H](C)C(=O)OCc1ccccc1)CO` [ProPAgen 14d, Dibenzyl 2,2'-((((E)-5-hydroxy-4-methylpent-3-en-1-yl)phosphoryl)bis(azane-diyl))-(2S, 2'S)-dipropionate], in the series on human Vγ9/Vδ2^+ T cells, the “activation of Vγ9/Vδ2 T cells at the highest concentration studied” value was “less than that achieved with 10 µM” and the “activation of Vγ9/Vδ2 T cells (rank in words)” value is “most potent activation”. In addition, in the series on CD8^+ T cells, the “concentration without CD8+ T cell activation relative to Vγ9/Vδ2 T-cell activation EC50” value is “approx. 100,000 times” and the “activation of CD8+ T cells” value is given as “did not exhibit activation”. In addition, the “sensitizing effects (specific lysis of T24 cells by Vγ9/Vδ2 T-cells)” value in series [2] is “much more potent”.

In the case of `O=P(O)(O)C(O)(Cn1ccnc1)P(=O)(O)O` [zoledronate, reference compound], the concentration for a half-maximal effect (EC50) was 18500 nM in the series with human Vγ9/Vδ2^+ T cells (Homo sapiens, T-cell) and 3 to 500 nM in the series with Vγ9/Vδ2 T cells.
